# Assay results reported in article PMC6556873, “Rapid Covalent-Probe Discovery by Electrophile-Fragment Screening” (Journal of the American Chemical Society, 2019).
# Read-outs that look alike come from different tables or passages of the source.
# Legend:
# in vitro [1] = assay: in vitro; design: species or system HB2, CCD841; details: human, hek293 cells
# in vitro [2] = assay: in vitro; design: species or system CCD841, HEK293; details: human, hb2 cells, read-out: HB-2 Cells Viability (%)
# BSA = biological target: T1, BSA (Bos taurus, UniProt P02769); design: Intact protein LC/MS covalent labelling, fragments in pools of five, 200 uM each, 4 °C; details: 24 h, 4 °C, pool of five; 200 µM; covalent
# T1 construct: gene ALB
# PCAF = biological target: T2, PCAF (Homo sapiens, UniProt Q92831); design: Intact protein LC/MS covalent labelling, fragments in pools of five, 200 uM each, 4 °C; details: 24 h, 4 °C, pool of five; 200 µM; covalent
# T2 construct: gene KAT2B
# OTUB2 (OTUB2A) = biological target: T3, OTUB2 (OTUB2A) (Homo sapiens, UniProt Q96DC9); design: Intact protein LC/MS covalent labelling, fragments in pools of five, 200 uM each, 4 °C; details: 24 h, 4 °C, pool of five; 200 µM; covalent
# T3 construct: full length residues 1-234, E. coli BL21(DE3)-R3, His tag removed by TEV, construct 27312 Da
# T3 sequence (Q96DC9 1-234): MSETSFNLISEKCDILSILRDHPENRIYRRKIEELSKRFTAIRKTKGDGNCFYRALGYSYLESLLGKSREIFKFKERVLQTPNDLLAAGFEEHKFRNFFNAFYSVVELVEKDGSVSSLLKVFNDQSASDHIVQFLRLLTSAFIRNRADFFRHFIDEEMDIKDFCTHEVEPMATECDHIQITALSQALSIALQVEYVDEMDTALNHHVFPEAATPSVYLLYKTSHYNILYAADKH
# NUDT7 = biological target: T4, NUDT7 (Homo sapiens, UniProt P0C024); design: Intact protein LC/MS covalent labelling, fragments in pools of five, 200 uM each, 4 °C; details: 24 h, 4 °C, pool of five; 200 µM; covalent
# T4 construct: residues 14-235, E. coli, pNIC28-Bsa4, N-terminal His6 tag removed by TEV, construct 26672 Da
# in vitro [3] = assay: in vitro; design: species or system HB2, HEK293; details: human, ccd841 cells
# T1 sequence (P02769 whole entry, the tested form may be a part): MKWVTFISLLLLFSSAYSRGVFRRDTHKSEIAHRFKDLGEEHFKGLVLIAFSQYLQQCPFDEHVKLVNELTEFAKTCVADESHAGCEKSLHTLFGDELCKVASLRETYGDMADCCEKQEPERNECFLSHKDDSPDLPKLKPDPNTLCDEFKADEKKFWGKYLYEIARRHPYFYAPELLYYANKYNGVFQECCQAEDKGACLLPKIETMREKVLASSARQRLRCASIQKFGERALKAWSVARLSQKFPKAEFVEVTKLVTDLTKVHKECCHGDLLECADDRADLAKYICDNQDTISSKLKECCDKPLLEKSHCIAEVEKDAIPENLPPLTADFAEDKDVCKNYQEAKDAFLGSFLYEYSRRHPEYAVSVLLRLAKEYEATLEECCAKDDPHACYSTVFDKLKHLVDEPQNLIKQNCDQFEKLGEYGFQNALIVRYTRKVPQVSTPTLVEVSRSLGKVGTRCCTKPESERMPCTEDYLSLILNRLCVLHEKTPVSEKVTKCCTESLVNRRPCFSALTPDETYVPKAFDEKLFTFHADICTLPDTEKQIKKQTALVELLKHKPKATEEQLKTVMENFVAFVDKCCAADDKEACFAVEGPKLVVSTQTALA
# T2 sequence (Q92831 whole entry, the tested form may be a part): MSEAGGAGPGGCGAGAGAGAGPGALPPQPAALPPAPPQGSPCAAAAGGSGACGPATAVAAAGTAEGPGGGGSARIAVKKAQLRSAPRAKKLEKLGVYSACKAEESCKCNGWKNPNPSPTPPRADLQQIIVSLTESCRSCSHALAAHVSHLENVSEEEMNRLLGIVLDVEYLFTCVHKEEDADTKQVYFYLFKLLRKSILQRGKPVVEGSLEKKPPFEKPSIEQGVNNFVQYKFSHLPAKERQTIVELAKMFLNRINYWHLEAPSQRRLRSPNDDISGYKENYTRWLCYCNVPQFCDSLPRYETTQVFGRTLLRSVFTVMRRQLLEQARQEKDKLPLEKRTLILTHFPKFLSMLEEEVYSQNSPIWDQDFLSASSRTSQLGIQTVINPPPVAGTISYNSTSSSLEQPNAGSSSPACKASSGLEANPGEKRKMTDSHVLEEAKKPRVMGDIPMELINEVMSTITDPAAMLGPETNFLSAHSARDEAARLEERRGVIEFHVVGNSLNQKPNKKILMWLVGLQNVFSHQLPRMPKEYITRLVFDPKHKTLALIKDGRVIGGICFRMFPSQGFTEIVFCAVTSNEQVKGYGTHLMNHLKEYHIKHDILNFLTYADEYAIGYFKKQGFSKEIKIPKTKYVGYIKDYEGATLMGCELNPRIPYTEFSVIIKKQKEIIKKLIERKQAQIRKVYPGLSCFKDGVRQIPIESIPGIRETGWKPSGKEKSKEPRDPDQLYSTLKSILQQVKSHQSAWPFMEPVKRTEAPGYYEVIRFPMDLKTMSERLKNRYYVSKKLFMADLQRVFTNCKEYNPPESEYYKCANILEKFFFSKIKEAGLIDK
# T4 sequence (P0C024 14-235): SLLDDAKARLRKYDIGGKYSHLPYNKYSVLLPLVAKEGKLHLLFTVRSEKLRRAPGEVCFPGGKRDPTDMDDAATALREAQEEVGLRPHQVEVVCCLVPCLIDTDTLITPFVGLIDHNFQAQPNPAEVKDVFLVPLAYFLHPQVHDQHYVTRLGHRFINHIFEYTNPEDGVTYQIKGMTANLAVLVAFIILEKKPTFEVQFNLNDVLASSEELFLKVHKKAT
BSA (BSA),PCAF (PCAF),OTUB2 (OTUB2 (OTUB2A)),NUDT7 (NUDT7),SMILES,"viability at 48 h, 10 µM (in vitro [1]) [%]","viability at 48 h, 10 µM (in vitro [2]) [%]","viability at 48 h, 10 µM (in vitro [3]) [%]"
0,0,0.31,0,O=C(CCl)NNC(=O)c1ccc(F)cc1 [PCM-0102430],93.4,94.9,93.2
0,0,0.06,0.19,Cc1csc(N(C(=O)CCl)c2ccccc2)n1 [PCM-0102265],48.6,12.6,36.8
0,0,0.54,0.12,O=C(CCl)Nc1cccc2ccccc12 [PCM-0102396],2.4,16.3,55.8
0,0,0.48,0,Cl.O=C(CCl)Nc1ccc(N2CCCC2)cc1 [PCM-0102670],30.3,35,41.8
0,0,0,0,C=CC(=O)N1CCC(C(=O)N2CCN(C(C)=O)CC2)CC1 [PCM-0102593],105,98.3,111
0,0,0.05,0.39,COC(=O)c1c(NC(=O)CCl)sc2c1CCCC2 [PCM-0102143],8.6,31.6,68.1
0,0,0,0.45,CN(Cc1cc(Cl)cc(Cl)c1)C(=O)CCl [PCM-0102678],22,8.3,22
0,0,0,0,O=C1CN(C(=O)CCl)c2ccc(C(F)(F)F)cc2N1 [PCM-0102289],94.7,89.3,96.4
0,0,0.29,0,Cl.O=C(CCl)N1CCN(Cc2cccc3ccccc23)CC1 [PCM-0102287],19.9,9.4,21.7
0,0,0,0,C=CC(=O)Nc1cccc(Cl)c1 [PCM-0102961],80.4,97.3,103
0,0,0,0,CN1CCN(C(=O)CCl)CC1 [PCM-0102921],90.1,102,109
0.1,0,0,0,Cc1ccccc1C(=O)NC1CCN(C(=O)CCl)CC1 [PCM-0103013],58.4,84.4,76.5
0,0,0,0,CN(Cc1ccccc1F)C(=O)CCl [PCM-0102787],57.9,57.7,72.2
0,0,0,0,N#CC(c1ccc(F)cc1)N1CCN(C(=O)CCl)CC1 (stereo not drawn) [PCM-0102341],8.6,28.6,60.3
0,0,0,0.11,O=C(CCl)N=c1sccn1Cc1ccccc1Cl [PCM-0102550],6,27.2,3.8
0,0,0.52,0,O=C(CCl)NNC(=O)c1ccccc1F [PCM-0102510],93.1,98,72.7
0,0,0,0,CC(C)N1CCC(NC(=O)CCl)CC1.Cl [PCM-0102748],97,90.9,90.3

BSA (BSA),PCAF (PCAF),OTUB2 (OTUB2 (OTUB2A)),NUDT7 (NUDT7),SMILES,"viability at 48 h, 10 µM (in vitro [1]) [%]","viability at 48 h, 10 µM (in vitro [2]) [%]","viability at 48 h, 10 µM (in vitro [3]) [%]"
0,0,0,0,C=CC(=O)N1Cc2ccccc2CC1c1nnc(CC)o1 (stereo not drawn) [PCM-0103005],93.2,96.8,79.4
0,0,0,0,CC(C)(C)OC(=O)N1CCN(C(=O)CCl)CC1 [PCM-0102786],68.2,85.9,84
0,0,0,0,Cc1cc(C)c(NC(=O)CCl)c(C)c1 [PCM-0102352],72.9,84.2,78.5
0,0,0,0,C=CC(=O)NC(c1cnn(C)c1)C(F)(F)F (stereo not drawn) [PCM-0103073],94.4,99.5,107
0,0,0.14,0.28,O=C(CCl)NNC(=O)C1CCC1 [PCM-0103061],2.3,8.2,30.9
0,0,0.08,0,CNC(=O)C1CCN(C(=O)CCl)CC1 [PCM-0102815],77.1,92.2,95.1
0,0,0,0,C=CC(=O)NC1CCN(C(=O)NCC)C1 (stereo not drawn) [PCM-0103058],109,94.4,93.3
0,0,0.1,0,CC(NC(=O)CCl)C1CC1 (stereo not drawn) [PCM-0102157],111,87.6,103
0,0,0,0,O=C(CCl)NC(=O)c1ccccc1Cl [PCM-0102422],93,99.7,110
0,0,0,0,Cl.O=C(CCl)N1CCN(C2CCS(=O)(=O)C2)CC1 (stereo not drawn) [PCM-0102405],90.2,107,87.8
0,0,0,0,CCc1ccccc1NC(=O)CCl [PCM-0102369],56.7,78.3,76.1
0,0,0,0,O=C(CCl)NC1CCOCC1 [PCM-0103045],110,100,77.7
0,0,0,0,CS(=O)(=O)c1ccccc1NC(=O)CCl [PCM-0102141],96.8,96.8,98.2
0,0,0,0,O=C(CCl)N(C1=CCCCC1)C1CC1 [PCM-0102745],98.7,96.2,88.3
0.09,0,0.1,0,CNC(=O)CNC(=O)CCl [PCM-0102279],112,108,97.3
0,0,0,0,O=C(Nc1ccccc1)C1CCN(C(=O)CCl)CC1 [PCM-0102219],5.6,5.6,34.2
